The target of assay [1] is T1, murine COX-II (Mus musculus, UniProt Q05769).
T1 sequence (Q05769 18-604): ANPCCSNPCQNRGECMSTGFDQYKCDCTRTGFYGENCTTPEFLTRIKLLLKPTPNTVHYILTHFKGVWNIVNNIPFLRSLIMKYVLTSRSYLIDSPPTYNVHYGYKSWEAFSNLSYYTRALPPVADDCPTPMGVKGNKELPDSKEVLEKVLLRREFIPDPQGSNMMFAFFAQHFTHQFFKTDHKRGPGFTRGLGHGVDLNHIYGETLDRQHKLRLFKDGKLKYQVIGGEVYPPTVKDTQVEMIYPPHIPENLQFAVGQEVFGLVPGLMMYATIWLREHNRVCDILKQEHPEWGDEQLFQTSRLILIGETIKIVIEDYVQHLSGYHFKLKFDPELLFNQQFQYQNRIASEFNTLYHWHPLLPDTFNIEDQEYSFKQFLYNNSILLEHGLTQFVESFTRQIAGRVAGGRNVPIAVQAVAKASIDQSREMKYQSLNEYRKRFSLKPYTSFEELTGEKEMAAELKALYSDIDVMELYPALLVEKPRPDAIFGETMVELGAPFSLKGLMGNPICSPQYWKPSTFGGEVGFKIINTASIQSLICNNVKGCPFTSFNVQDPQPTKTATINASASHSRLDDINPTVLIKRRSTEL
As to the kind of experiment: biochemical.

Assay [2] concerns the target T2, murine COX-I (Mus musculus, UniProt P22437).
T2 sequence (P22437 27-602): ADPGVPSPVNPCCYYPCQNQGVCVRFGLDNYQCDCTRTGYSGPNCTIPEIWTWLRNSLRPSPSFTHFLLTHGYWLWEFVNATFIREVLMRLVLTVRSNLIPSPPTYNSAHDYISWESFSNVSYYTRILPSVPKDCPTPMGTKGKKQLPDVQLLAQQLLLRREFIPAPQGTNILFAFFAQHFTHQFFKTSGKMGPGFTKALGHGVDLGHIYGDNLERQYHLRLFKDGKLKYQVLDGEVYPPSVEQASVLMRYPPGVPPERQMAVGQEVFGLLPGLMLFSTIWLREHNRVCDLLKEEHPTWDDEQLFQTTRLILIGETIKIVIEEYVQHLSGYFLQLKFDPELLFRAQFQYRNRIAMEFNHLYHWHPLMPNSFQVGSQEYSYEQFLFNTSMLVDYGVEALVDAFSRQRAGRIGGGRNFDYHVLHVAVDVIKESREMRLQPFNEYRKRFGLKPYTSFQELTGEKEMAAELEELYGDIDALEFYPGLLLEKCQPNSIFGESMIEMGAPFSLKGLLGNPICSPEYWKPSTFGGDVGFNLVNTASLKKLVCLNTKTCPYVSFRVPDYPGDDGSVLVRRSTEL
As to the kind of experiment: COX I activity in vitro, murine (PGE2 by ELISA). A general note: An ELISA detects its analyte on a solid surface through an enzyme-linked reagent.

In assay [3] the test system is carrageenan foot edema. The assay is described as follows: Rat Carrageenan Foot Pad Edema Test. Format: in vivo, rat (Male Sprague-Dawley). The conditions noted are these: oral, 3 hours after carrageenan, read-out: RAT PAW EDEMA % Inhibition; for inhibition at 20 mg/kg: @ 20 mg/kg body weight. On the procedure: Male Sprague-Dawley rats were selected in each group so that the average body weight was as close as possible. Rats were fasted with free access to water for over sixteen hours prior to the test. […] One hour later a subplantar injection of 0.1 mL of 1% solution of carrageenan/sterile 0.9% saline was administered and the volume of the injected foot was measured with a displacement plethysmometer connected to a pressure transducer with a digital indicator. Three hours after the injection of the carrageenan, the volume of the foot was again measured. […] Rat Carrageenan-induced Analgesia Test
Background: The carrageenan paw model is a standard test of acute inflammation.

A word on the IC50: it is the midpoint of a concentration-inhibition curve. Lower therefore signals higher potency. With `CCc1nc(-c2ccc(F)cc2)c(-c2ccc(S(C)(=O)=O)cc2)s1` [Example 42, 2-Ethyl-4-(4-fluorophenyl)-5-(4-methylsulfonylphenyl)thiazole], the figures for the IC50 in assay [1] and in assay [2] were below 100 nM and 1900 nM, respectively.

Broadly, the inhibition is the change of the read-out against control, counted positive when it falls. Turning to `CS(=O)(=O)c1ccc(-c2sc(-c3ccncc3)nc2-c2ccc(F)cc2)cc1` [Example 8, 4-(4-Fluorophenyl)-5-(4-methylsulfonylphenyl)-2-(4-pyridyl)thiazole], the inhibition at 20 mg/kg in assay [3] is 12%. Besides, the half-inhibitory concentration (IC50) in assay [1] was 200 nM; in assay [2], above 100000 nM.

In the case of `Cc1nc(-c2ccc(F)cc2)c(-c2ccc(S(C)(=O)=O)cc2)s1` [Example 28, 4-(4-Fluorophenyl)-5-(4-methylsulfonylphenyl)-2-methylthiazole], the values for the IC50 in assay [1] and in assay [2] were below 100 nM and above 10000 nM, respectively.

Regarding `CS(=O)(=O)c1ccc(-c2sc(-c3ccccc3Cl)nc2-c2ccccc2F)cc1` [Example 35, 2-(2-Chlorophenyl)-4-(2-fluorophenyl)-5-(4-methylsulfonylphenyl)thiazole], the inhibition at 20 mg/kg in assay [3] is 16%. In assay [2], this molecule showed an IC50 above 100000 nM.

With `CS(=O)(=O)c1ccc(-c2sc(CS(=O)(=O)c3cccs3)nc2-c2ccc(F)cc2)cc1` [Example 13], the IC50 in assay [1] was 1200 nM; in assay [2], above 30000 nM.

For `CC(C)(C)c1nc(-c2ccc(F)cc2)c(-c2ccc(S(C)(=O)=O)cc2)s1` [Example 18, 2-(tert-Butyl)-4-(4-fluorophenyl)-5-(4-methylsulfonylphenyl)thiazole], the figures for the IC50 in assay [1] and in assay [2] were 150 nM and 5400 nM, respectively.

In the case of `CCOC(=O)c1ccc(Nc2nc(-c3ccc(F)cc3)c(-c3ccc(S(C)(=O)=O)cc3)s2)cc1` [Example 55, Ethyl [4-[4-(4-fluorophenyl)-5-(4-methylsulfonylphenyl)-2-thiazolyl]amino]benzoate], the IC50 in assay [1] was 3500 nM; in assay [2], above 10000 nM.

Take `CCOC(=O)c1nc(-c2ccc(F)cc2)c(-c2ccc(S(C)(=O)=O)cc2)s1` [Example 17, Ethyl [4-(4-fluorophenyl)-5-(4-methylsulfonylphenyl)-2-thiazolyl]carboxylate]: the IC50 in assay [1] was 300 nM; in assay [2], above 10000 nM.

For the molecule `Cc1nc(-c2ccc(S(C)(=O)=O)cc2)c(-c2ccc(F)cc2)s1` [Example 20, 5-(4-Fluorophenyl)-4-(4-methylsulfonylphenyl)-2-methylthiazole], the inhibition at 20 mg/kg in assay [3] is 48%. Besides, the IC50 is 100 nM in assay [1] and above 10000 nM in assay [2].

In the case of `CS(=O)(=O)c1ccc(-c2sc(CCCc3ccccc3)nc2-c2ccc(F)cc2)cc1` [Example 43, 4-(4-Fluorophenyl)-5-(4-methylsulfonylphenyl)-2-(3-phenylpropyl)thiazole], the IC50 in assay [1] was found to be 1300 nM; in assay [2], 100000 nM.

On to `CS(=O)(=O)c1ccc(-c2sc(-c3cccnc3)nc2-c2ccc(F)cc2)cc1` [Example 26, 4-(4-Fluorophenyl)-5-(4-methylsulfonylphenyl)-2-(3-pyridyl)thiazole], for which, in assay [2], the IC50 was above 100000 nM.

For the molecule `CS(=O)(=O)c1ccc(-c2scnc2-c2ccc(F)cc2)cc1` [Example 22, 4-(4-Fluorophenyl)-5-(4-methylsulfonylphenyl)thiazole], the IC50 in assay [1] was 11200 nM; in assay [2], above 100000 nM.

On to `CCCCCCNc1nc(-c2ccc(F)cc2)c(-c2ccc(S(C)(=O)=O)cc2)s1` [Example 46, 4-(4-Fluorophenyl)-2-n-hexylamino-5-(4-methylsulfonylphenyl)thiazole], for which the inhibition at 10 mg/kg in assay [3] amounted to 25%. The IC50 in assay [1] was below 100 nM; in assay [2], 1400 nM.

With `CCCCNc1nc(-c2ccc(F)cc2)c(-c2ccc(S(C)(=O)=O)cc2)s1` [Example 47, 2-Butylamino-4-(4-fluorophenyl)-5-(4-methylsulfonylphenyl)thiazole], the inhibition at 20 mg/kg in assay [3] worked out at 12%. In addition, the values for the IC50 in assay [1] and in assay [2] were below 100 nM and 1400 nM, respectively.

With `CS(=O)(=O)c1ccc(-c2sc(CC#N)nc2-c2ccc(F)cc2)cc1` [Example 27, 2-(Cyanomethyl)-4-(4-fluorophenyl)-5-(4-methylsulfonylphenyl)thiazole], the IC50 in assay [1] is 200 nM; in assay [2] it was above 10000 nM.

Regarding `COc1ccc(-c2nc(-c3ccc(F)cc3)c(-c3ccc(S(C)(=O)=O)cc3)s2)cc1` [Example 49, 4-(4-Fluorophenyl)-5-(4-methylsulfonylphenyl)-2-(4-methoxyphenyl)thiazole], the inhibition at 10 mg/kg in assay [3] was determined as 6%. In addition, the figures for the IC50 in assay [1] and in assay [2] were 300 nM and above 10000 nM, respectively.

On to `CS(=O)(=O)c1ccc(-c2sc(N3CCCCC3)nc2-c2ccc(F)cc2)cc1` [Example 30, 4-(4-Fluorophenyl)-5-(4-methylsulfonylphenyl)-2-(1-piperidinyl)thiazole], for which the IC50 in assay [1] was determined as 300 nM; in assay [2] it was 900 nM.

For `CS(=O)(=O)c1ccc(-c2sc(CCc3ccccc3)nc2-c2ccc(F)cc2)cc1` [Example 44, 4-(4-Fluorophenyl)-5-(4-methylsulfonylphenyl)-2-(2-phenylethyl)thiazole], the midpoint of inhibition in assay [2], the IC50, lay at 1700 nM. This lies in the single-digit micromolar range.

`CS(=O)(=O)c1ccc(-c2sc(Cc3ccccc3)nc2-c2ccc(F)cc2)cc1` [Example 19, 2-Benzyl-4-(4-fluorophenyl)-5-(4-methylsulfonylphenyl)thiazole] displayed an IC50 in assay [2] of 400 nM.

`CS(=O)(=O)c1ccc(-c2sc(Nc3ccc(C#N)cc3)nc2-c2ccc(F)cc2)cc1` [Example 53, 2-(4-Cyanophenylamino)-4-(4-fluorophenyl)-5-(4-methylsulfonylphenyl)-thiazole]: the IC50 in assay [1] amounted to 900 nM; in assay [2], 200 nM.

For the molecule `CS(=O)(=O)c1ccc(-c2sc(-c3cccs3)nc2-c2ccc(F)cc2)cc1` [Example 24, 4-(4-Fluorophenyl)-5-(4-methylsulfonylphenyl)-2-(2-thienyl)thiazole], the inhibition at 10 mg/kg in assay [3] was 20%. Also, the results for the IC50 in assay [1] and in assay [2] were below 100 nM and above 10000 nM, respectively.

Consider `CC(C)(C)Nc1nc(-c2ccc(F)cc2)c(-c2ccc(S(C)(=O)=O)cc2)s1` [Example 51, 2-tert-Butylamino-4-(4-fluorophenyl)-5-(4-methylsulfonylphenyl)thiazole], for which the inhibition at 10 mg/kg in assay [3] was 14%. Further, the figures for the IC50 in assay [1] and in assay [2] were 300 nM and 11900 nM, respectively.

For `CS(=O)(=O)c1ccc(-c2sc(COc3cccc(Cl)c3)nc2-c2ccc(F)cc2)cc1` [Example 37, 2-((3-Chlorophenoxy)methyl)-4-(4-fluorophenyl)-5-(4-methylsulfonylphenyl)thiazole], the inhibition at 20 mg/kg in assay [3] stood at 9%. Besides, the IC50 was below 100 nM in assay [1] and above 100000 nM in assay [2].

Consider `CCOC(=O)c1cccc(Nc2nc(-c3ccc(F)cc3)c(-c3ccc(S(C)(=O)=O)cc3)s2)c1` [Example 54, Ethyl-[3-[4-(4-fluorophenyl)-5-(4-methylsulfonylphenyl)-2-thiazolyl]amino]benzoate], for which the IC50 in assay [1] came out at 1300 nM; in assay [2], 1100 nM.

Consider `CS(=O)(=O)c1ccc(-c2sc(-c3ccccc3)nc2-c2ccc(F)cc2)cc1` [Example 45, 4-(4-Fluorophenyl)-5-(4-methylsulfonylphenyl)-2-phenylthiazole], for which the inhibition at 10 mg/kg in assay [3] came out at 19%. Besides, the IC50 in assay [1] is below 100 nM; in assay [2], above 100000 nM.

Consider `CS(=O)(=O)c1ccc(-c2sc(Nc3cc(Cl)cc(Cl)c3)nc2-c2ccc(F)cc2)cc1` [Example 52, 2-(3,5-Dichlorophenylamino)-4-(4-fluorophenyl)-5-(4-methylsulfonylphenyl)thiazole], for which the inhibition at 10 mg/kg in assay [3] came to 7%. In addition, the IC50 was 500 nM in assay [1] and above 100000 nM in assay [2].

Regarding `CCNc1nc(-c2ccc(F)cc2)c(-c2ccc(S(C)(=O)=O)cc2)s1` [Example 50, 2-Ethylamino-4-(4-fluorophenyl)-5-(4-methylsulfonylphenyl)-thiazole], in assay [3], the inhibition at 10 mg/kg is 11%. Moreover, the IC50 in assay [1] is 300 nM; in assay [2] it was above 10000 nM.

The values are drawn from patent US5668161A, “Substituted thiazoles for the treatment of inflammation” (G.D. Searle & Co., priority 1996, dated 1997).
